Here are results for 47 compounds from ChEMBL document CHEMBL1156817, “Fructose-1,6-bisphosphatase Inhibitors. 2. Design, synthesis, and structure-activity relationship of a series of phosphonic acid containing benzimidazoles that function as 5'-adenosinemonophosphate (AMP) mimics” (J Med Chem, 2010).

One data set deals with Hepatocyte. The data set is described as follows: cells. The conditions noted are these: Rattus norvegicus.
Data set [1] has as its target T1, Fructose-1,6-bisphosphatase 1 (Homo sapiens, UniProt P09467).
T1 sequence (P09467 whole entry): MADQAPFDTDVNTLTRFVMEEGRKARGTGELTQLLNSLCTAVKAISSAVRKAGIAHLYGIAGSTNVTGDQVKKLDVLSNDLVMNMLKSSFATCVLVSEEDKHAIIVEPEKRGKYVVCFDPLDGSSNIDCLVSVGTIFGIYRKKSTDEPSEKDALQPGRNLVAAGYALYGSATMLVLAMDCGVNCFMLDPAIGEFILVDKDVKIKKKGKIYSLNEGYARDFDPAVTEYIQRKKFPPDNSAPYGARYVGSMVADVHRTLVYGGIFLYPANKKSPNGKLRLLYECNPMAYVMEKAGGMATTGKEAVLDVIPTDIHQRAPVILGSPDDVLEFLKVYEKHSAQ
The data set is described as follows: Inhibition of human liver FBPase 1.

The target in data set [2] is T2, Fructose-1,6-bisphosphatase 1 (Rattus norvegicus, UniProt P19112).
T2 sequence (P19112 whole entry): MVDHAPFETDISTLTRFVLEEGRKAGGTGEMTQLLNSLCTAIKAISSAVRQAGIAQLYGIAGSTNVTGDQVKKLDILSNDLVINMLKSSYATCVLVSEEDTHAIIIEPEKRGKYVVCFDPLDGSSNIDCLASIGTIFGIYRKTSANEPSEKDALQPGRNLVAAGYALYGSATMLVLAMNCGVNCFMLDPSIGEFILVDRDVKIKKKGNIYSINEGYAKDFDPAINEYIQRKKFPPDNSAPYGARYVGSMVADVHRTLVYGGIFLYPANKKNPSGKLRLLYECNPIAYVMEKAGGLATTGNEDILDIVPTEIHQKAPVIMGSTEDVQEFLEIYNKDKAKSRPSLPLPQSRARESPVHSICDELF
The data set is described as follows: Inhibition of rat liver FBPase 1.

The next data set deals with Rattus norvegicus. The data set is described as follows: Reduction of blood glucose level in 18 hrs fasted normal Sprague-Dawley rat at 10 mg/kg, iv after 1 hr interval. Type of data set: functional. On the set-up: scale not given: the % may be the effect or the level left.
Data set [3] in a line: Oral bioavailability in 18 hrs fasted normal Sprague-Dawley rat up to 100 mg/kg by urinary excretion assay. The data set is classed as ADME, organism-based. The conditions noted are these: urine.

pIC50: −log10 of the molar value.

Description for Hepatocyte: Inhibition of glucose production in rat primary hepatocytes

`Nc1cccc2c1nc(-c1ccc(P(=O)(O)O)o1)n2CC1CCCC1`: the pIC50 (commonly the negative decadic logarithm of the IC50, by convention in mol/L) with Hepatocyte was 4.35; in data set [1], 5.82; in data set [2], 5.70.
The matching figures for `CCCn1c(-c2ccc(P(=O)(O)O)o2)nc2c(N)cccc21`: 4.43, 5.96 and 5.70.
On to `CC(C)Cn1c(-c2ccc(P(=O)(O)O)o2)nc2c(N)c(F)cc(-c3ccccc3)c21`, for which the pIC50 in the data set with Hepatocyte is 4.74; in data set [1], 7.05; in data set [2] it was 6.05. Besides, the Activity with Rattus norvegicus is 0%.
Regarding `CC(C)Cn1c(-c2ccc(P(=O)(O)O)o2)nc2c(N)c(O)ccc21`, the pIC50 in the data set on Hepatocyte was 4.60; in data set [1], 6.30; in data set [2] it was 4.70.
In the case of `Nc1cccc2c1nc(-c1ccc(P(=O)(O)O)o1)n2CC12CCC(CC1)C2`, the pIC50 with Hepatocyte was 4.60; in data set [1], 6.00; in data set [2], 5.70.
In the same order, the values of `COc1ccc2c(nc(-c3ccc(P(=O)(O)O)o3)n2CC(C)C)c1N` are 4.80, 6.15 and 5.70.
In the same order, the values of `Nc1cccc2c1nc(-c1ccc(P(=O)(O)O)o1)n2Cc1ccoc1` are 4.00, 5.38 and 4.70.
With `CC(C)Cn1c(-c2ccc(P(=O)(O)O)o2)nc2c(N)c(F)cc(CCCO)c21`, the negative logarithm of the IC50 (pIC50) with Hepatocyte was 6.00; in data set [1] it was 7.10; in data set [2], 6.35. In the data set with Rattus norvegicus, this compound displayed an Activity of 63%.
On to `CC(C)Cn1c(-c2ccc(P(=O)(O)O)o2)nc2c(N)ccc(Cl)c21`, for which the negative logarithm of the IC50 (pIC50) with Hepatocyte was 4.62; in data set [1], 6.05; in data set [2], 5.70.
Turning to `CC(C)Cn1c(-c2ccc(P(=O)(O)O)o2)nc2c(N)c(F)cc(C3CC3)c21`, the pIC50 in the data set on Hepatocyte was 5.82; in data set [1], 7.22; in data set [2], 6.46. The Activity in the data set with Rattus norvegicus is on record as 64%.
`CC(C)Cn1c(-c2ccc(P(=O)(O)O)o2)nc2c(N)cccc21`: the negative logarithm of the IC50 (pIC50) is 4.70 in the data set with Hepatocyte, 5.82 in data set [1] and 5.40 in data set [2].
The matching figures for `Nc1cccc2c1nc(-c1ccc(P(=O)(O)O)o1)n2Cc1ccccc1`: 4.00, 5.30 and 4.70.
In the same order, the values of `Nc1cccc2c1nc(-c1ccc(P(=O)(O)O)o1)n2Cc1ccsc1` are 4.00, 5.40 and 4.70.
The matching figures for `CC(C)(C)c1ccc(Cn2c(-c3ccc(P(=O)(O)O)o3)nc3c(N)cccc32)cc1`: 4.00, 5.02 and 4.70.
For `CC(C)Cn1c(-c2ccc(P(=O)(O)O)o2)nc2c(N)c(Cl)ccc21`, the pIC50 in the data set on Hepatocyte is 4.82; in data set [1] it was 6.70; in data set [2], 5.70.
In the same order, the values of `CCC(CC)Cn1c(-c2ccc(P(=O)(O)O)o2)nc2c(N)c(F)ccc21` are 5.30, 6.82 and 6.07.
In the same order, the values of `Nc1cccc2c1nc(-c1ccc(P(=O)(O)O)o1)n2Cc1cccc(O)c1` are 4.00, 5.73 and 4.70.
For the compound `CC(C)Cn1c(-c2ccc(P(=O)(O)O)o2)nc2c(N)c(F)cc(Cl)c21`, the results for the pIC50 in data set [1] and in data set [2] were 7.00 and 5.70, respectively.
On to `CC(C)Cn1c(-c2ccc(P(=O)(O)O)o2)nc2c(N)c(F)cc(CCC(C)(C)C)c21`, for which the values for the negative logarithm of the IC50 (pIC50) (with Hepatocyte; in data set [1]; in data set [2]) were 4.74, 6.68 and 5.80, respectively. Also, the Activity in the data set on Rattus norvegicus is listed as 28%.
For `CC(C)Cn1c(-c2ccc(P(=O)(O)O)o2)nc2c(N)c(F)ccc21`, the figures for the pIC50 (in the data set with Hepatocyte; in data set [1]; in data set [2]) were 5.62, 7.00 and 5.64, respectively.
In the case of `CC(C)Cn1c(-c2ccc(P(=O)(O)O)o2)nc2c(N)c(F)cc(-c3ccc(Cl)cc3)c21`, the pIC50 was < 4.60 in the data set with Hepatocyte, 7.05 in data set [1] and 5.70 in data set [2].
On to `CC(C)Cn1c(-c2ccc(P(=O)(O)O)o2)nc2c(N)c(Cl)cc(Cl)c21`, for which the pIC50 in the data set on Hepatocyte is 4.85; in data set [1], 6.35; in data set [2], 5.70.
Consider `Nc1cccc2c1nc(-c1ccc(P(=O)(O)O)o1)n2CC1CCCCCC1`, for which the values for the pIC50 (with Hepatocyte; in data set [1]; in data set [2]) were 4.00, 5.49 and 4.70, respectively.
Regarding `Nc1c(F)ccc2c1nc(-c1ccc(P(=O)(O)O)o1)n2CC1CC1`, the negative-log IC50 (pIC50) in the data set on Hepatocyte is 5.48; in data set [2] it was 5.66.
As to `CC(C)Cn1c(-c2ccc(P(=O)(O)O)o2)nc2c(N)c(F)cc(CCCCCl)c21`, the pIC50 in the data set on Hepatocyte was 5.51; in data set [1] it was 7.15; in data set [2], 6.30. This compound had an Activity in the data set on Rattus norvegicus of 47%.
For `Nc1cccc2c1nc(-c1ccc(P(=O)(O)O)o1)n2Cc1ccc(C(F)(F)F)cc1`, the pIC50 was 4.00 in the data set on Hepatocyte, 5.15 in data set [1] and 4.70 in data set [2].
The matching figures for `Nc1cccc2c1nc(-c1ccc(P(=O)(O)O)o1)n2Cc1ccc(-c2ccccc2)cc1`: 4.00, 5.60 and 4.70.
With `CCc1cc(F)c(N)c2nc(-c3ccc(P(=O)(OCC(=O)OC(C)(C)C)OCC(=O)OC(C)(C)C)o3)n(CC(C)C)c12`, the bioavailability (as a rule, dose-corrected exposure relative to a reference, in per cent) in data set [3] is 2%.
With `CCCc1ccc2c(nc(-c3ccc(P(=O)(O)O)o3)n2CC(C)C)c1N`, the negative-log IC50 (pIC50) with Hepatocyte is 4.30; in data set [1], 5.52; in data set [2], 4.70.
With `CC(C)Cn1c(-c2ccc(P(=O)(O)O)o2)nc2c(N)c(F)cc(CCCN(C)C)c21`, the values for the negative-log IC50 (pIC50) in data set [1] and in data set [2] were 7.26 and 6.40, respectively. In addition, in the data set with Rattus norvegicus, the Activity is given as 44%.
For the compound `CC(C)Cn1c(-c2ccc(P(=O)(O)O)o2)nc2c(N)c(Br)cc(Br)c21`, the figures for the negative logarithm of the IC50 (pIC50) (in the data set on Hepatocyte; in data set [1]; in data set [2]) were 4.85, 6.00 and 5.70, respectively.
In the same order, the values of `Nc1cccc2c1nc(-c1ccc(P(=O)(O)O)o1)n2CC1CCCCC1` are 4.00, 5.60 and 4.70.
As to `CC(C)Cn1c(-c2ccc(P(=O)(O)O)o2)nc2c(N)c(Br)c(Cl)c(Cl)c21`, the negative logarithm of the IC50 (pIC50) in data set [1] is 5.00.
Turning to `CC(C)Cn1c(-c2ccc(P(=O)(O)O)o2)nc2c(N)ccc(Br)c21`, the negative-log IC50 (pIC50) is 4.85 in the data set with Hepatocyte, 6.40 in data set [1] and 5.70 in data set [2].
The matching figures for `C=Cc1cc(F)c(N)c2nc(-c3ccc(P(=O)(O)O)o3)n(CC(C)C)c12`: 4.60, 6.55 and 6.05.
In the same order, the values of `CCc1ccc2c(nc(-c3ccc(P(=O)(O)O)o3)n2CC(C)C)c1N` are 4.30, 5.60 and 4.70.
In the same order, the values of `CC(C)Cn1c(-c2ccc(P(=O)(O)O)o2)nc2c(N)c(F)c(Cl)cc21` are 4.80, 6.65 and 5.70.
Regarding `Cn1c(-c2ccc(P(=O)(O)O)o2)nc2c(N)cccc21`, the negative logarithm of the IC50 (pIC50) in the data set on Hepatocyte is 4.00; in data set [1], 5.22; in data set [2] it was 4.70.
Turning to `CC(C)Cn1c(-c2ccc(P(=O)(O)O)o2)nc2c(N)c(Br)ccc21`, the pIC50 in the data set with Hepatocyte is 4.85; in data set [1], 6.40.
`Nc1cccc2c1nc(-c1ccc(P(=O)(O)O)o1)n2CC1CCC1`: the negative-log IC50 (pIC50) is 4.40 in the data set on Hepatocyte, 6.10 in data set [1] and 5.70 in data set [2].
In the case of `CCCc1cc(F)c(N)c2nc(-c3ccc(P(=O)(O)O)o3)n(CC(C)C)c12`, the pIC50 is 5.26 in the data set with Hepatocyte, 7.00 in data set [1] and 6.19 in data set [2]. In the data set on Rattus norvegicus, this compound yielded an Activity of 60%.
Take `CC(C)CCCc1cc(F)c(N)c2nc(-c3ccc(P(=O)(O)O)o3)n(CC(C)C)c12`: the pIC50 in the data set on Hepatocyte is 4.64; in data set [1], 7.00; in data set [2], 5.68.
Consider `CCn1c(-c2ccc(P(=O)(O)O)o2)nc2c(N)cccc21`, for which the pIC50 in data set [1] is 5.65; in data set [2], 4.40.
For the compound `CC(C)Cn1c(-c2ccc(P(=O)(O)O)o2)nc2c(N)c(F)cc(-c3ccc(F)cc3)c21`, the results for the pIC50 (in the data set on Hepatocyte; in data set [1]; in data set [2]) were 4.68, 6.74 and 5.89, respectively. In the data set with Rattus norvegicus, this compound registered an Activity of 0%.
In the case of `CCC(CC)n1c(-c2ccc(P(=O)(O)O)o2)nc2c(N)c(F)ccc21`, the pIC50 in the data set on Hepatocyte is 5.02; in data set [1] it was 6.07; in data set [2], 5.60.
In the same order, the values of `CC(C)Cn1c(-c2ccc(P(=O)(O)O)o2)nc2c(N)c(F)cc(Br)c21` are 5.30, 6.89 and 5.68.
The matching figures for `Nc1cccc2c1nc(-c1ccc(P(=O)(O)O)o1)n2CC1CC1`: 4.00, 6.10 and 4.70.
